Assay results reported in ChEMBL document CHEMBL1201862, “PubChem BioAssay data set” (2004).
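Five concentrations, 48 hours, 96-well plates. At the GI50, growth is halved.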 The source made the active and inactive calls. No stated cut-off is given here; in the data, active = GI50 up to about 1.1 µM and inactive = higher.

How the values were obtained:
Test in all cases: NCI anticancer screen, dose series, 48 h
[1] = tested on: T47D
[2] = tested on: MDA-N
[3] = tested on: BT-549
[4] = tested on: MDA-MB-231
[5] = tested on: SNB-78
[6] = tested on: KM-20L2
[7] = tested on: M19-MEL
[8] = tested on: DMS-273
[9] = tested on: RXF 631

| SMILES | GI50 [1] | GI50 [2] | GI50 [3] | GI50 [4] | GI50 [5] | GI50 [6] | GI50 [7] | GI50 [8] | GI50 [9] |
| --- | --- | --- | --- | --- | --- | --- | --- | --- | --- |
| N#CC1(Nc2ccc(-c3ccc(NC4(C#N)CCCC4)cc3)cc2)CCCC1 | > 100 µM (inactive) | > 100 µM (inactive) | > 100 µM (inactive) | > 100 µM (inactive) | – | – | – | – | – |
| Nc1n[nH]c(Nc2ccc(Cl)cc2)c1P(=O)(c1ccccc1)c1ccccc1 | 58.7 µM (inactive) | 11 µM (inactive) | – | 19.1 µM (inactive) | – | – | – | – | – |
| Nc1nc(SCCC/C=C/I)nc2c1ncn2C1OC(COP(=O)(O)O)C(O)C1O (stereo not given) | – | – | – | – | > 100 µM (inactive) | > 100 µM (inactive) | > 100 µM (inactive) | > 100 µM (inactive) | – |
| CCCCCOc1ccc(/C=N\c2ccc(CCc3ccc(/N=C/c4ccc(OCCCCC)cc4)cc3)cc2)cc1 | – | – | – | – | > 100 µM (inactive) | > 100 µM (inactive) | > 100 µM (inactive) | > 100 µM (inactive) | – |
| Cn1c(=O)c2nc(NCCO)cnc2n(C)c1=O | – | – | – | – | > 100 µM (inactive) | > 100 µM (inactive) | 56.5 µM (inactive) | 53.6 µM (inactive) | – |
| C[N+]1([O-])[C@H]2CC(OC(=O)[C@H](CO)c3ccccc3)C[C@H]1[C@H]1O[C@H]12 (stereo not given in full) | > 100 µM (inactive) | > 100 µM (inactive) | > 100 µM (inactive) | > 100 µM (inactive) | – | – | – | – | – |
| COC(=O)/C=C\n1ncc(=O)[nH]c1=O | > 100 µM (inactive) | > 100 µM (inactive) | > 100 µM (inactive) | > 100 µM (inactive) | – | – | – | – | – |
| C=C(C)C1Cc2c(c3ccccc3n(C)c2=O)O1 (stereo not given) | – | – | – | – | > 100 µM (inactive) | > 100 µM (inactive) | > 100 µM (inactive) | – | > 100 µM (inactive) |
| CC(=O)Nc1ccc(Sc2nnc(NC(C)=O)s2)cc1 | > 100 µM (inactive) | > 100 µM (inactive) | – | > 100 µM (inactive) | – | – | – | – | – |
| N#CCCN(CCC#N)c1ccc(/C=C(/NC(=O)Nc2ccccc2Cl)NC(=O)c2cc([N+](=O)[O-])ccc2Cl)cc1 | – | – | – | – | > 100 µM (inactive) | > 100 µM (inactive) | > 100 µM (inactive) | > 100 µM (inactive) | > 100 µM (inactive) |
| CN(C)CCCNC(=O)N/N=C\c1cccc2ccccc12 | > 10 µM (inactive) | > 10 µM (inactive) | – | > 10 µM (inactive) | – | – | – | – | – |
| c1ccc2c(CCNC3=NCCO3)cccc2c1 | > 10 µM (inactive) | > 10 µM (inactive) | – | > 10 µM (inactive) | – | – | – | – | – |
| CCOC(=O)COc1ccc(OC)c2c1C(=O)CCC2 | – | – | – | – | > 100 µM (inactive) | > 100 µM (inactive) | > 100 µM (inactive) | > 100 µM (inactive) | – |
| CN(CCO)/N=N/c1[nH]cnc1C(N)=O | – | – | – | – | > 100 µM (inactive) | > 100 µM (inactive) | > 100 µM (inactive) | 49.9 µM (inactive) | – |
| CCN(CC)CCC(=O)NC1c2ccccc2Oc2c(C)cccc21 (stereo not given) | – | – | – | – | > 100 µM (inactive) | – | > 100 µM (inactive) | > 100 µM (inactive) | – |
| CN(C)CCNC(=O)c1cccc2c(=O)c3ccccc3oc12 | – | – | – | – | 37.1 µM (inactive) | 34.9 µM (inactive) | 22.9 µM (inactive) | 28.8 µM (inactive) | – |
| CC#CC#C/C(=C/C=CC(=O)OC)SC | > 100 µM (inactive) | > 100 µM (inactive) | > 100 µM (inactive) | > 100 µM (inactive) | – | – | – | – | – |
| COc1ccc2c(c1)[n+]([O-])c(C(=O)C/C(=N/NC(=O)c1ccccc1O)C(=O)Nc1ccc(Cl)c(C(F)(F)F)c1)c(C)[n+]2[O-] | – | – | – | – | > 100 µM (inactive) | > 100 µM (inactive) | 52.2 µM (inactive) | 49.9 µM (inactive) | – |
| COc1cc(C2c3cc4c(cc3[C@@H](Nc3ccccc3)C3COC(=O)[C@H]23)OCO4)cc(OC)c1O (stereo not given in full) | – | – | – | – | 2.37 µM (inactive) | 2.1 µM (inactive) | 1.55 µM (inactive) | 0.142 µM (active) | – |
| Nc1ccccc1SCc1csc(-c2ccc(Cl)cc2)n1 | 5.07 µM (inactive) | – | 24.1 µM (inactive) | 21.3 µM (inactive) | – | – | – | – | – |
